Test results as given in ChEMBL document CHEMBL3879908, “Pyrrolidinone carboxamide derivatives” (2014).

Molecular target: T1, Chemerin-like receptor 1 (Homo sapiens, UniProt Q99788)
T1 sequence (Q99788 whole entry): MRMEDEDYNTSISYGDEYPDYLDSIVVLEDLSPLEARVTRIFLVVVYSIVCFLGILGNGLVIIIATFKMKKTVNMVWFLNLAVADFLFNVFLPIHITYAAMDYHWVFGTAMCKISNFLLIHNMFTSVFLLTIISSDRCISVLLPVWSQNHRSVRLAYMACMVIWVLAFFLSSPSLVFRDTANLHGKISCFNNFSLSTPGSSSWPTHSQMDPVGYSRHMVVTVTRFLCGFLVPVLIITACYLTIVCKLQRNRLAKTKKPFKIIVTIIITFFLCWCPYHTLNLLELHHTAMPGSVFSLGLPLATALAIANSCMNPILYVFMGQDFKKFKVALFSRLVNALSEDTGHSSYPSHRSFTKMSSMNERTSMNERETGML
Assay: Displacement of [125I]-chemerin from ChemR23 (unknown origin) transfected in mouse BaF3 cells after 3 hrs by scintillation counting method
Assay type: cell-based

SMILES | IC50 [nM]
Cc1cccc(C)c1N1C[C@@](CN2CCC(F)(F)C2)(C(=O)Nc2cc(C#N)cc(C(F)(F)F)c2)[C@H](C)C1=O | ≤ 30
Cc1cccc(C)c1N1C[C@@](CN2CCC2)(C(=O)Nc2cc(C(F)(F)F)cc(C(F)(F)F)c2)[C@H](C)C1=O | 30 to 300
Cc1cccc(C)c1N1C[C@@](CN(C)CC2CC2)(C(=O)Nc2cc(C(F)(F)F)cc(C(F)(F)F)c2)[C@H](C)C1=O | ≤ 30
Cc1cccc(C)c1N1C[C@@](CN2CCCC2)(C(=O)Nc2cc(C#N)cc(C(F)(F)F)c2)[C@H](C)C1=O | ≤ 30
Cc1cccc(C)c1N1C[C@@](CN(C)CC2CCC2)(C(=O)Nc2cc(C(F)(F)F)cc(C(F)(F)F)c2)[C@H](C)C1=O | 30 to 300
CCN(CCF)C[C@@]1(C(=O)Nc2cc(C(F)(F)F)cc(C(F)(F)F)c2)CN(c2c(C)cccc2C)C(=O)[C@H]1C | ≤ 30
Cc1cccc(C)c1N1C[C@@](CN(CCF)CCF)(C(=O)Nc2cc(C(F)(F)F)cc(C(F)(F)F)c2)[C@H](C)C1=O | ≤ 30
Cc1cccc(C)c1N1C[C@@](CN2CCC(F)(F)C2)(C(=O)Nc2cc(C3CC3)cc(C(F)(F)F)c2)[C@H](C)C1=O | 30 to 300
Cc1cccc(C)c1N1C[C@@](CN(CCF)CC2CC2)(C(=O)Nc2cc(C(F)(F)F)cc(C(F)(F)F)c2)[C@H](C)C1=O | ≤ 30
CCN(CC)C[C@@]1(C(=O)Nc2cc(C#N)cc(C(F)(F)F)c2)CN(c2c(C)cccc2C)C(=O)[C@H]1C | ≤ 30
Cc1cccc(C)c1N1C[C@@](CN(C)C(C)C)(C(=O)Nc2cc(C3CC3)cc(C(F)(F)F)c2)[C@H](C)C1=O | 30 to 300
Cc1cccc(C)c1N1C[C@@](CN2CCOCC2)(C(=O)Nc2cc(C#N)cc(C(F)(F)F)c2)[C@H](C)C1=O | 30 to 300
Cc1cccc(C)c1N1C[C@@](CN2CCN(CC(F)(F)F)CC2)(C(=O)Nc2cc(F)cc(C(F)(F)F)c2)[C@H](C)C1=O | 30 to 300
Cc1cccc(C)c1N1C[C@@](CN2CCCCC2)(C(=O)Nc2cc(C#N)cc(C(F)(F)F)c2)[C@H](C)C1=O | ≤ 30
CCN(CC1CC1)C[C@@]1(C(=O)Nc2cc(C(F)(F)F)cc(C(F)(F)F)c2)CN(c2c(C)cccc2C)C(=O)[C@H]1C | ≤ 30
Cc1cccc(C)c1N1CC(CN2CCCC2)(C(=O)Nc2cc(C3CC3)cc(C(F)(F)F)c2)CC1=O (stereo not drawn) | ≤ 30
Cc1cccc(C)c1N1C[C@@](CN(C)CC(C)C)(C(=O)Nc2cc(OC(C)C)cc(C(F)(F)F)c2)[C@H](C)C1=O | ≤ 30
Cc1cccc(C)c1N1C[C@@](CN2CCC(F)CC2)(C(=O)Nc2cc(C(F)(F)F)cc(C(F)(F)F)c2)[C@H](C)C1=O | 30 to 300
Cc1cccc(C)c1N1C[C@@](CN(C)CC(C)C)(C(=O)Nc2cc(C(F)F)cc(C(F)(F)F)c2)[C@H](C)C1=O | ≤ 30
Cc1cccc(C)c1N1C[C@@](CN2CCOCC2)(C(=O)Nc2cc(C3CC3)cc(C(F)(F)F)c2)[C@H](C)C1=O | 30 to 300
CCc1cc(NC(=O)[C@]2(CN3CCC(F)(F)CC3)CN(c3c(C)cccc3C)C(=O)[C@H]2C)cc(C(F)(F)F)c1 | 30 to 300
Cc1cccc(C)c1N1C[C@@](CN2CCO[C@H](C)C2)(C(=O)Nc2cc(C#N)cc(C(F)(F)F)c2)[C@H](C)C1=O | 30 to 300
Cc1cccc(C)c1N1C[C@@](CN(C)CC(F)(F)F)(C(=O)Nc2cc(C#N)cc(C(F)(F)F)c2)[C@H](C)C1=O | ≤ 30

SMILES | IC50 [nM]
Cc1cccc(C)c1N1C[C@@](CN(C)CCCCF)(C(=O)Nc2cc(C(F)(F)F)cc(C(F)(F)F)c2)[C@H](C)C1=O | ≤ 30
Cc1cccc(C)c1N1C[C@@](CN2CCC(F)CC2)(C(=O)Nc2cc(C#N)cc(C(F)(F)F)c2)[C@H](C)C1=O | ≤ 30
Cc1cccc(C)c1N1C[C@@](CN2CCC(F)(F)CC2)(C(=O)Nc2cc(C#N)cc(C(F)(F)F)c2)[C@H](C)C1=O | 30 to 300
CCCN(CC)C[C@@]1(C(=O)Nc2cc(C(F)(F)F)cc(C(F)(F)F)c2)CN(c2c(C)cccc2C)C(=O)[C@H]1C | ≤ 30
CCCN(C)C[C@@]1(C(=O)Nc2cc(C(F)(F)F)cc(C(F)(F)F)c2)CN(c2c(C)cccc2C)C(=O)[C@H]1C | ≤ 30
Cc1cccc(C)c1N1C[C@@](CN(C)CC(C)C)(C(=O)Nc2cc(C(F)(F)F)cc(C(F)(F)F)c2)[C@H](C)C1=O | ≤ 30
Cc1cccc(C)c1N1C[C@@](CN(C)C2CCCCC2)(C(=O)Nc2cc(C(F)(F)F)cc(C(F)(F)F)c2)[C@H](C)C1=O | ≤ 30
Cc1cccc(C)c1N1C[C@@](CN(C)CC(C)(C)C)(C(=O)Nc2cc(C(F)(F)F)cc(C(F)(F)F)c2)[C@H](C)C1=O | ≤ 30
Cc1cccc(C)c1N1C[C@@](CN(C)CC(C)C)(C(=O)Nc2cc(C3CC3)cc(C(F)(F)F)c2)[C@H](C)C1=O | 30 to 300
Cc1cccc(C)c1N1C[C@@](CN2CCC(F)(F)CC2)(C(=O)Nc2cc(Cl)cc(C(F)(F)F)c2)[C@H](C)C1=O | 30 to 300
Cc1cccc(C)c1N1C[C@@](CN2CCCC(F)(F)C2)(C(=O)Nc2cc(C(F)(F)F)cc(C(F)(F)F)c2)[C@H](C)C1=O | 30 to 300
CCN(CC)C[C@@]1(C(=O)Nc2cc(OC(C)C)cc(C(F)(F)F)c2)CN(c2c(C)cccc2C)C(=O)[C@H]1C | 30 to 300
CCN(C[C@@]1(C(=O)Nc2cc(C#N)cc(C(F)(F)F)c2)CN(c2c(C)cccc2C)C(=O)[C@H]1C)C(C)C | ≤ 30
COC1CCN(C[C@@]2(C(=O)Nc3cc(C#N)cc(C(F)(F)F)c3)CN(c3c(C)cccc3C)C(=O)[C@H]2C)CC1 | 30 to 300
Cc1cccc(C)c1N1C[C@@](CN(CCF)CC(C)C)(C(=O)Nc2cc(C(F)(F)F)cc(C(F)(F)F)c2)[C@H](C)C1=O | ≤ 30
Cc1cccc(C)c1N1C[C@@](CN(C)CC2CC2)(C(=O)Nc2cc(C#N)cc(C(F)(F)F)c2)[C@H](C)C1=O | 30 to 300
Cc1cccc(C)c1N1C[C@](C(=O)Nc2cc(C(F)(F)F)cc(C(F)(F)F)c2)(N(C)C)CC1=O | ≤ 30
CCN(C)C[C@@]1(C(=O)Nc2cc(C(F)(F)F)cc(C(F)(F)F)c2)CN(c2c(C)cccc2C)C(=O)[C@H]1C | ≤ 30
Cc1cccc(C)c1N1C[C@@](CN2CCC(F)(F)CC2)(C(=O)Nc2cc(F)cc(C(F)(F)F)c2)[C@H](C)C1=O | 30 to 300
Cc1cccc(C)c1N1C[C@@](CN2CCCCC2)(C(=O)Nc2cc(C3CC3)cc(C(F)(F)F)c2)[C@H](C)C1=O | 30 to 300
Cc1cccc(C)c1N1C[C@@](CN(C)CC(F)F)(C(=O)Nc2cc(C(F)(F)F)cc(C(F)(F)F)c2)[C@H](C)C1=O | ≤ 30
COCCN(C)C[C@@]1(C(=O)Nc2cc(C#N)cc(C(F)(F)F)c2)CN(c2c(C)cccc2C)C(=O)[C@H]1C | 30 to 300
Cc1cccc(C)c1N1C[C@@](CN(C)C2CCC2)(C(=O)Nc2cc(C(F)(F)F)cc(C(F)(F)F)c2)[C@H](C)C1=O | ≤ 30

SMILES | IC50 [nM]
CCN(C)C[C@@]1(C(=O)Nc2cc(C3CC3)cc(C(F)(F)F)c2)CN(c2c(C)cccc2C)C(=O)[C@H]1C | 30 to 300
CCN(CC(F)(F)F)C[C@@]1(C(=O)Nc2cc(C#N)cc(C(F)(F)F)c2)CN(c2c(C)cccc2C)C(=O)[C@H]1C | ≤ 30
CCN(C[C@@]1(C(=O)Nc2cc(C(F)(F)F)cc(C(F)(F)F)c2)CN(c2c(C)cccc2C)C(=O)[C@H]1C)C(C)C | ≤ 30
CCN(C)C[C@@]1(C(=O)Nc2cc(C#N)cc(C(F)(F)F)c2)CN(c2c(C)cccc2C)C(=O)[C@H]1C | ≤ 30
Cc1cccc(C)c1N1C[C@@](CN(C)C)(C(=O)Nc2cc(C#N)cc(C(F)(F)F)c2)[C@H](C)C1=O | ≤ 30
Cc1cccc(C)c1N1C[C@@](CN(C)C(C)C)(C(=O)Nc2cc(C(F)(F)F)cc(C(F)(F)F)c2)[C@H](C)C1=O | ≤ 30
Cc1cccc(C)c1N1C[C@@](CN(C)CCF)(C(=O)Nc2cc(C(F)(F)F)cc(C(F)(F)F)c2)[C@H](C)C1=O | ≤ 30
COCC(C)(C)N(C)C[C@@]1(C(=O)Nc2cc(C(F)(F)F)cc(C(F)(F)F)c2)CN(c2c(C)cccc2C)C(=O)[C@H]1C | ≤ 30
Cc1cccc(C)c1N1C[C@@](CN2CCC(F)(F)C2)(C(=O)Nc2cc(C(F)(F)F)cc(C(F)(F)F)c2)[C@H](C)C1=O | 30 to 300
Cc1cccc(C)c1N1C[C@@](CN2CCOC[C@H]2C)(C(=O)Nc2cc(C(F)(F)F)cc(C(F)(F)F)c2)[C@H](C)C1=O | 30 to 300
Cc1cccc(C)c1N1C[C@@](CN2CCC(F)(F)CC2)(C(=O)Nc2cc(C(F)(F)F)cc(C(F)(F)F)c2)[C@H](C)C1=O | ≤ 30
Cc1cccc(C)c1N1C[C@@](CN(C)CC(F)(F)F)(C(=O)Nc2cc(C(F)(F)F)cc(C(F)(F)F)c2)[C@H](C)C1=O | ≤ 30
CCN(CC)C[C@@]1(C(=O)Nc2cc(Cl)cc(C(F)(F)F)c2)CN(c2c(C)cccc2C)C(=O)[C@H]1C | 30 to 300
Cc1cccc(C)c1N1C[C@@](CN(C)C(C)(C)CO)(C(=O)Nc2cc(C(F)(F)F)cc(C(F)(F)F)c2)[C@H](C)C1=O | 30 to 300
Cc1cccc(C)c1N1C[C@@](CN(C)C(C)C)(C(=O)Nc2cc(C#N)cc(C(F)(F)F)c2)[C@H](C)C1=O | ≤ 30
CCN(CC(C)C)C[C@@]1(C(=O)Nc2cc(C(F)(F)F)cc(C(F)(F)F)c2)CN(c2c(C)cccc2C)C(=O)[C@H]1C | ≤ 30
Cc1cccc(C)c1N1C[C@@](CN2CCC(F)(F)CC2)(C(=O)Nc2cc(OC(C)C)cc(C(F)(F)F)c2)[C@H](C)C1=O | ≤ 30
COCCN(C)C[C@@]1(C(=O)Nc2cc(C(F)(F)F)cc(C(F)(F)F)c2)CN(c2c(C)cccc2C)C(=O)[C@H]1C | 30 to 300
Cc1cccc(C)c1N1C[C@@](CN(C)C2CCC2)(C(=O)Nc2cc(OC(C)C)cc(C(F)(F)F)c2)[C@H](C)C1=O | 30 to 300
Cc1cccc(C)c1N1C[C@@](CN(C)C)(C(=O)Nc2cc(C3CC3)cc(C(F)(F)F)c2)[C@H](C)C1=O | 30 to 300
Cc1cccc(C)c1N1C[C@@](CN2CCC2)(C(=O)Nc2cc(C#N)cc(C(F)(F)F)c2)[C@H](C)C1=O | 30 to 300
CCN(CC)C[C@@]1(C(=O)Nc2cc(C3CC3)cc(C(F)(F)F)c2)CN(c2c(C)cccc2C)C(=O)[C@H]1C | ≤ 30
